The source of these data is patent US6790866B2, “Sulfonamide and carboxamide derivatives and drugs containing the same as the active ingredient” (Ono Pharmaceutical Co., Ltd., priority 1996, dated 2004).

The target in the experiment is T1, prostanoid receptor subtype (mouse EP1) (Mus musculus, UniProt P35375).
T1 construct: expressed in transfected cells; host or cells: CHO cells (membrane fraction)
T1 sequence (P35375 1-405): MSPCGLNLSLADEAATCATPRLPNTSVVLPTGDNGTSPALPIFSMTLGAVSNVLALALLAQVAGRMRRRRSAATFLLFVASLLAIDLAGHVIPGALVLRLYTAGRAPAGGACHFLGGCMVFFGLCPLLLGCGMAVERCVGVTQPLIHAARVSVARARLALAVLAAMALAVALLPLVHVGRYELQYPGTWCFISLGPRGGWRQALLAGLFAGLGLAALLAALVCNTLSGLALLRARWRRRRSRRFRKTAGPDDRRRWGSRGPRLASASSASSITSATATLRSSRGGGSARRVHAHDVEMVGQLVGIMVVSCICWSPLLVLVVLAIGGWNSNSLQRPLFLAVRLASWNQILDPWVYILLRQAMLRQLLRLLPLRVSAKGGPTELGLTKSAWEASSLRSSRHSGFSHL
Description: Binding assay using expression cell of prostanoid receptor subtype (3H-PGE2 competition, CHO cell membrane fraction). The following applies: membrane fraction of CHO cell expressing mouse EP1; 3H-PGE2 2.5 nM; Ki=IC50/(1+([C]/Kd)); read-out: dissociation constant Ki. Here is the method:
(i) Binding Assay Using Expression Cell of Prostanoid Receptor Subtype
The preparation of membrane fraction was carried out according to the method of Sugimoto et al (J. Biol. Chem. 267, 6463-6466 (1992)), using expression CHO cell of prostanoid receptor subtype (mouse EP1).
The standard assay mixture contained membrane fraction (0.5 mg/ml), ^3H-PGE2 in a final volume of 200 μl was incubated for 1 hour at room temperature. The reaction was terminated by addition of 3 ml of ice-cold buffer. The mixture was rapidly filtered through a glass filter (GF/B). The radioactivity associated with the filter was measured by liquid scintillation counting.
Kd and Bmax values were determined from Scratchard plots (Ann. N.Y. Acad. Sci. 51, 660 (1949)). Non-specific binding was calculated as the bond in the presence of an excess (2.5 μM) of unlabeled PGE2. In the experiment for competition of specific ^3H-PGE2 was added at a concentration of 2.5 nM and the compound of the present invention was added at a various concentration. The following buffer was used in all reaction.
Buffer: potassium phosphate (pH6.0, 10 mM), EDTA (1 mM), MgCl2 (10 mM), NaCl (0.1M).
The dissociation constant Ki (μM) of each compound was calculated by the following equation.

Broadly, the Ki is a dissociation constant, usually derived from enzyme kinetics or from competition with a known ligand. For the compound `O=C(O)c1ccc(COc2ncc(C(F)(F)F)cc2NS(=O)(=O)c2ccccc2)cc1` [Example 38, 4-(3-phenylsulfonylamino-5-trifluoromethylpyridine-2-yloxymethyl)benzoic acid], the Ki is 160 nM.
`CC(C)N(c1ccc(Cl)cc1OCc1ccc(C(=O)O)cc1)S(=O)(=O)c1cccs1` [18(58), 4-[2-(N-isopropyl-2-thienylsulfonylamino)-5-chlorophenoxymethyl]benzoic acid]: the Ki is 6.2 nM.
To `O=C(O)c1ccc(COc2cc(C(F)(F)F)ccc2N(C2CCCC2)S(=O)(=O)c2ccccc2)cc1` [18(30), 4-[2-(N-cyclopentyl-phenylsulfonylamino)-5-trifluoromethylphenoxymethyl]benzoic acid] belongs 1.6 nM.
`CCCS(=O)(=O)N(Cc1ccccc1)c1ccc(C)cc1OCc1ccc(C(=O)O)cc1` [18(75), 4-[2-(N-benzyl-propylsulfonylamino)-5-methylphenoxymethyl]benzoic acid]: the inhibitory constant (Ki) is 5.4 nM.
As to `CC(C)N(c1ccc(C(F)(F)F)cc1OCc1ccc(OCC(=O)O)cc1)S(=O)(=O)c1ccccc1` [Example 24, 4-[2-(N-isopropyl-phenylsulfonylamino)-5-trifluoromethylphenoxymethyl]phenoxy acetic acid], the Ki stood at 5.8 nM.
As for `CC(C)CN(c1ccc(C(F)(F)F)cc1OCc1ccc(/C=C/C(=O)O)cc1)S(=O)(=O)c1ccco1` [18(94), 4-[2-(N-isobutyl-2-furanylsulfonylamino)-5-trifluoromethylphenoxymethyl]cinnamic acid], the Ki was 0.4 nM.
To `CC(C)N(c1ccc(C(F)(F)F)cc1OC[C@H]1CC[C@H](C(=O)O)CC1)S(=O)(=O)c1ccccc1` [18(38), trans-4-[2-(N-isopropyl-phenylsulfonylamino)-5-trifluoromethylphenoxymethyl]cyclohexanoic acid] belongs 16 nM; to `CC(C)N(c1ccc(Cl)cc1OCc1ccc(C(=O)O)o1)S(=O)(=O)c1ccccc1` [24(9), 5-[2-(N-isopropyl-phenylsulfonylamino)-5-chlorophenoxymethyl]furan-2-carboxylic acid], 18 nM; to `O=C(O)c1ccc(COc2cc(Cl)ccc2CNS(=O)(=O)c2ccccc2)cc1` [Example 43, 4-(2-phenylsulfonylaminomethyl-5-chlorophenoxymethyl)benzoic acid], 380 nM.
The same measure for `O=C(O)c1ccc(COc2cc(Cl)ccc2NS(=O)(=O)c2ccccc2)nc1` [22(3), 6-(2-phenylsulfonylamino-5-chlorophenoxymethyl)nicotinic acid]: 480 nM; for `O=C(O)c1ccc(NC(=O)c2cc(Br)ccc2NS(=O)(=O)c2ccc(Cl)cc2)cc1` [2(k), 4-[2-(4-chlorophenylsulfonylamino)-5-bromobenzoylamino]benzoic acid]: 99 nM.
To `CCN(c1ccc(C(F)(F)F)cc1OCc1ccc(/C=C/C(=O)O)cc1)S(=O)(=O)c1ccccc1` [18(102), 4-[2-(N-ethyl-phenylsulfonylamino)-5-trifluoromethylphenoxymethyl]cinnamic acid] belongs 0.2 nM.
In the case of `CC(C)N(c1ccc(C(F)(F)F)cc1/C=C/c1ccc(C(=O)O)cc1)S(=O)(=O)c1ccccc1` [Example 48, 4-[2-[2-(N-isopropyl-phenylsulfonylamino)-5-trifluoromethylphenyl]-(E)-vinyl]benzoic acid], the Ki was 10 nM.
In the case of `Cc1ccc(N(C(C)C)S(=O)(=O)CC2CCCC2)c(OCc2ccc(C(=O)O)cc2)c1` [20(20), 4-[2-(N-isopropyl-cyclopentylmethylsulfonylamino)-5-methylphenoxymethyl]benzoic acid], the inhibitory constant (Ki) is 9.9 nM.
Turning to `CC(C)N(c1ccc(C(F)(F)F)cc1OCc1ccc(C#CC(=O)O)cc1)S(=O)(=O)c1ccccc1` [Example 44, 4-[2-(N-isopropyl-phenylsulfonylamino)-5-trifluoromethylphenoxymethyl]phenylpropiolic acid], the Ki came to 1.3 nM.
On to `CC(C)N(c1ccc(C(F)(F)F)cc1N(C)Cc1ccc(C(=O)O)cc1)S(=O)(=O)c1ccccc1` [Example 30, 4-[N-methyl-[2-(N-isopropyl-phenylsulfonylamino)-5-trifluoromethylphenyl]aminomethyl]benzoic acid], for which the Ki amounted to 73 nM.
